Source: PMC9841525, “Chemical Blockage of the Mitochondrial Rhomboid Protease PARL by Novel Ketoamide Inhibitors Reveals Its Role in PINK1/Parkin-Dependent Mitophagy” (Journal of Medicinal Chemistry, 2022)
*1 amine or outer side, *2 acyl side, *3 side chain or, on linkers, in order; H or OH if unused. Where a SMILES comes first, the peptide text is derived from it. [ ]: non-standard residue; d: D form. The star is where a group is joined. NH(4-phenylbutyl) = c1ccc(CCCCN*)cc1; X1 = C[C@H](N[*:1])C(=O)C(=O)[*:2]

Key:
Parkin [1] = assay: Parkin recruitment to mitochondria and mitochondrial morphology, fluorescence microscopy; type: cell-based, human; conditions: HEK293 T-REx PINK1 cells, 3 h; 5 μM compound 5, CCCP or Antimycin A, vs DMSO
Experimental: (§1) Inducible stable Flp-In HEK293 T-REx cells expressing PINK1 were described previously.[33] HEK293 T-REx PINK1 and HEK293T cells were grown in DMEM (Gibco) supplemented with 10% (v/v) fetal bovine serum (ThermoFisher), 1% (v/v) GlutaMAX (Gibco), 1% (v/v) sodium pyruvate (Gibco), 125 μg/mL hygromycin (Invitrogen), and 10 μg/mL blasticidin (Gibco) or DMEM supplemented with 10% (v/v) fetal bovine serum, respectively, at 37 °C in 5% (v/v) CO2. For microscopy, cells were seeded on poly-L-lysine (Sigma)-coated slides. Transient plasmid transfections were performed using 25 kDa linear polyethylenimine (Polysciences). Plasmid (100 ng) encoding HA-Parkin-IRES-GFP, mito-mCherry or Parkin-mEGFP, or 500 ng plasmid encoding PGAM5-FLAG were used per 6-well. Total transfected DNA was 2 μg/well. For siRNA transfection, 2 × 10^5 cells were seeded per 6-well and on the next day transfected with 20 nM siRNA-oligonucleotide using lipofectamine RNAiMAX (ThermoFisher). Cells were analyzed 27 h post-transfection or five days post-siRNA-transfection. HEK293 T-REx PINK1 cells were induced with 0.3 μg/mL doxycycline for 24 h before further processing. Hoechst staining (1 μg/mL) was done immediately before adding treatment to the cells. Treatments were administered for the indicated times before processing; CCCP (Sigma) was always used as 10 μM for 3 h and Antimycin A (Sigma) as 30 μM for 3 h.
For fixation, cells were incubated for 15 min with 4% formaldehyde (16% formaldehyde diluted in PBS, Thermo Scientific) and washed in PBS. The cover glasses were mounted with Fluoromount-G (Southern Biotech) on microscope slides. […] Parkin recruitment events to the mitochondria were counted by hand throughout each z-stack and cell. […] JC-1 images were handled as summed intensity z-stack projections, as well as subjected to flatfield correction and subtraction of background before measuring the fluorescence levels normalized to the number of cell nuclei. The fluorescence intensity ratio between the red and green signal was calculated and compared to DMSO as a ratio of 1. Data were evaluated using Excel and GraphPad Prism 6.

Parkin [2] = assay: Parkin recruitment to mitochondria, subcellular fractionation and immunoblot; type: cell-based, human; conditions: HEK293 T-REx PINK1 cells, HA-Parkin-IRES-GFP; 5 μM compound 5, CCCP 10 μM or Antimycin A 30 μM
Experimental: as §1
Unless mentioned otherwise, all steps were performed at 4 °C. For subcellular fractionation to separate cellular content into cytosolic and mitochondrial fractions, cells were washed with PBS, harvested in PBS-EDTA (1 mM EDTA, 0.2 g/L D-glucose), and centrifuged at 500 × g for 5 min. […]
For immunoblot analysis in other cases, cells were either processed as described above or washed with PBS and directly lysed with Tris-glycine SDS-PAGE sample buffer and heated for 15 min at 65 °C. […] For quantification, ImageJ was used (http://rsb.info.nih.gov/ij/). […]

## CC(=O)N[C@@H](C)C(=O)N[C@H](C(=O)N[C@@H](Cc1ccccc1)C(=O)N[C@@H](CC(C)C)C(=O)N[C@@H](C)C(=O)C(=O)NCCCCc1ccccc1)C(C)C [compound 5] (Ac-AVFL[X1]-{NH(4-phenylbutyl)})
Parkin [1]
  Recruitment of Parkin-mEGFP to mitochondria (microscopy): significant recruitment of mEGFP-tagged Parkin to the mitochondria
Parkin [2]
  Parkin recruitment to the mitochondrial fraction: Parkin recruitment to the mitochondrial fraction, albeit in a lower quantity than in the two chemically induced stress conditions
